The values below come from patent US20030133920A1, “Koji molds for preparing cholesterol lowering products” (priority 2000, published 2003).

The subject of assay [1] is cholesterol synthesis in human hepatic T9A4 cells. The experiment in a line: Inhibition test for cholesterol synthesis in presence of 14C-mevalonate (downstream of HMGCoA/mevalonate step). The assay is classed as cell-based. As to the method: (§1) The human hepatic T9A4 cells were grown in the serum-free LCM medium (Biofluids, Rockville, Md., USA) under 3.5% CO2 at 37° C. The cells were seeded into 24 well plates and incubated at confluency with 1 mM ^14C-acetate (1 mCi/mmol, Amersham) for 20 h in the absence (control) or in the presence of the fermented extract fractions. Cells were also incubated with 1.17 mM ^14C-mevalonate (0.85 mCi/mmol, Amersham) for 20 h in order to evaluate whether the compounds stemming from the microorganisms to be tested have an inhibitory effect downstream the HMGCoA/Mevalonate conversion step.
(§2) Lipid extraction was performed twice by incubation with hexane:isopropanol (3:2) for 30 min at room temperature. The combined extracts were dried under N2, redissolved in hexane and subjected to high performance thin layer chromatography (Merck, Darmstadt, Germany) in a solvent mixture of hexane:diethyl ether:acetic acid (75:25:1). The neo-synthesis of cholesterol was determined by measuring the ^14C-acetate incorporation into the cholesterol with an instant imager (Camberra Packard, Zurich, Switzerland) and expressed as percent of the control.

Assay [2] has the same test system. The experiment in a line: Inhibition test for cholesterol synthesis, 14C-acetate incorporation into cholesterol. The assay is classed as cell-based. Particulars: 1 mM 14C-acetate, 20 h, liquid fermentation extracts, extract concentration in the medium per row (37-70 μg/ml; lovastatin 0.5 μg/ml). As to the method:
as §1, §2

Broadly, the inhibition is the change of the read-out against control, counted positive when it falls.

Take `CC[C@H](C)C(=O)O[C@H]1C[C@@H](C)C=C2C=C[C@H](C)[C@H](CC[C@@H]3C[C@@H](O)CC(=O)O3)[C@H]21` [LOVASTATIN, lovastatin]: the “inhibitory effect on cholesterol biosynthesis (in words)” value in assay [1] (T9A4 cells, in presence of 14C-mevalonate) is reported as “does not inhibit cholesterol biosynthesis”. Further, the inhibition at 0.5 µg/mL was determined as 0% in assay [1] (human hepatic T9A4 cells, 1.17 mM 14C-mevalonate, 20 h, extract concentration in the medium per row (37-50 μg/ml; lovastatin 0.5 μg/ml)) and 56% in assay [2].
